In patent publication US20160362433A1, “ETHER COMPOUNDS FOR TREATMENT OF COMPLEMENT MEDIATED DISORDERS” (Achillion Pharmaceuticals, Inc., priority 2014, published 2016):

Molecular target: T1, Human factor D (Homo sapiens, UniProt P00746)
T1 construct: Human factor D (purified from human serum, Complement Technology, Inc.); purchased Complement Technology, Inc; host or cells: human serum
Experiment: Human Factor D Assay
Type: biochemical
Conditions: Human factor D 80 nM, substrate Z-L-Lys-SBzl, DTNB
Method: The assay of Example 8 was used to determine the IC50's of the compounds. Other standard factor D inhibition assays are also available.
Human factor D (purified from human serum, Complement Technology, Inc.) at 80 nM final concentration is incubated with test compound at various concentrations for 5 minutes at room temperature in 50 mM Tris, 1M NaCl, pH 7.5. A synthetic substrate Z-L-Lys-SBzl and DTNB (Ellman's reagent) are added to final concentrations of 100 μM each. The increase in color is recorded at OD405 nm in a microplate in kinetic mode over 30 minutes with 30 second time points in a spectrofluorimeter. IC50 values are calculated by non-linear regression from the percentage of inhibition of complement factor D activity as a function of test compound concentration.

T1 sequence (P00746 26-253): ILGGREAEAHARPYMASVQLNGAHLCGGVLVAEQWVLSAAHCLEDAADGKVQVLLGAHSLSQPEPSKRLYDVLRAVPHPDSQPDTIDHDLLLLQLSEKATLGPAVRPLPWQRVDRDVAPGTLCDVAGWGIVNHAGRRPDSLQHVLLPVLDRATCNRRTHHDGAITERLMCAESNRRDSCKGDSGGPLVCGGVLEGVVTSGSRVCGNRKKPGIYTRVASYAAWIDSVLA

## CC(=O)c1cn(CC(=O)N2C[C@H](F)C[C@H]2C(=O)NCc2cccc(Cl)c2F)c2cc(OCc3cc4ccc3CCc3ccc(cc3)CC4)ccc12 [Compound 6, (2S,4R)-1-(2-(3-acetyl-6-((tricyclo[8.2.2.2^4,7]hexadeca-4,6,10,12,13,15-hexaen-5-ylmethyl)oxy)-1H-indol-1-yl)acetyl)-N-(3-chloro-2-fluorobenzyl)-4-fluoropyrrolidine-2-carboxamide]
  IC50: 1 to 10 µM
